{"source": "patent US4520134A", "about": "“N-alkyl-4'-hydroxyacetanilides, pharmaceutical compositions comprising them and their use” (priority 1984, dated 1985)", "key": {"[1]": {"conditions": "cited from earlier work; for protective effect against paracetamol: 300 mg/kg, 450 mg/kg paracetamol orally; for protection against acetaminophen toxicity: free radical scavengers; for effect on acetaminophen hepatotoxicity: Kelleher et al."}, "[2]": {"experiment": "enhancement of acetaminophen hepatotoxicity (applicant's finding)", "conditions": "in vivo"}, "[3]": {"conditions": "administered up to one hour after acute toxic amounts of acetaminophen; cited from earlier work"}, "[4]": {"conditions": "mouse, in vivo; cited from earlier work"}, "[5]": {"conditions": "administered within 16 hours after an overdose; cited from earlier work"}, "[6]": {"experiment": "hot plate test (Ankier), time to lick a back paw", "type": "in vivo, mice", "conditions": "30 mg/kg i.p.; for average time before licking a back paw: 10 minutes after dose, plate 54° C., untreated control 44 seconds", "description": "Two groups of mice, six mice per group, were used in the hot plate test described by S. I. Ankier European Journal of Pharmacology 27:1-4 (1974). The control group, which was untreated, at a plate temperature of 54° C. took an average of 44 seconds to lick a back paw. The test group received a dose of N-ethyl-4'-hydroxyacetanilide (30 mg/kg) administered intraperitoneally, and when placed on the hot plate at 54° C. 10 minutes later, shown an average time of 64 seconds before licking a back paw. The analgesic activity of this compound thus increased the pain-response time by almost 50 percent.\nThe analgesic properties of N-isopropylacetaminophen were tested using the hot plate test described by Ankier (Eur. J. Pharmacol. 27: 1-(1974)). Two groups of mice, 6 animals/group were used. The first group was placed on the hot plate, individually, and time need to lick the back paw was recorded and found to be 44 seconds (average) at 54° C. The second group of mice each received 30 mg/kg (i.p.) N-isopropylacetaminophen and after 10 minutes placed on the hot plate at 54° C. The time required to lick the rear paw was measured and found to be 64 seconds (average), thus increased response time by 50%."}, "[7]": {"conditions": "1894 paper; cited from earlier work"}, "[8]": {"conditions": "1894 paper, without supporting data; cited from earlier work"}, "[9]": {"experiment": "toxicity of N-isopropylacetaminophen, histopathology of liver, kidney and lung", "type": "in vivo, mice", "conditions": "100-400 mg/kg i.p.; 24 hours", "description": "(§1) The toxicity of N-isopropylacetaminophen was evaluated by injecting mice with this compound at various doss from 100-400 mg/kg, i.p.) and 24 hours later, the animals were sacrificed and histopathology was determined for the liver, kidney and lung."}, "[10]": {"experiment": "CNS sedation by N-isopropylacetaminophen", "type": "in vivo, mice", "description": "as §1\nThe higher the dose, the longer the sedation. This was also found to be the case when mice were given the drug orally, except the dose needed to give the same sedative activity was higher (400-600 mg/kg, oral). This sedative effect of the drug lasted from 30 min. at 250 mg/kg to approximately 1.5 hr at 400 mg/kg. At the higher dose, the mice went to sleep."}, "[11]": {"conditions": "mouse, in vivo"}, "[12]": {"conditions": "mouse, in vivo, cited from earlier work"}, "[13]": {"conditions": "therapeutically recommended doses for extended periods of time; cited from earlier work"}, "[14]": {"conditions": "man; cited from earlier work"}, "[15]": {"tested_on": "cytochrome P-450", "conditions": "cited from earlier work"}, "[16]": {"conditions": "chronic use; cited from earlier work"}, "[17]": {"conditions": "vitamin E deficient rats; cited from earlier work"}, "[18]": {"conditions": "500 mg/kg i.p. in propylene glycol"}}, "note": "Read-outs that look alike come from different tables or passages of the source."}
{"compound": "CC1NC(C(=O)O)CS1", "note": "(centres unmarked) [2-methylthiazolidine-4-carboxylic acid]", "values": [{"measurement": "protection against hepatotoxins", "setting": "[1]; forms cysteine in the liver", "value": "can also protect against heptotoxins"}]}
{"compound": "COc1ccc(O)c(C(C)(C)C)c1", "note": "[BHA, butylated hydroxyanisole]", "values": [{"measurement": "effect on acetaminophen hepatotoxicity", "setting": "[2]", "value": "profoundly enhance its hepatotoxicity"}]}
{"compound": "Cc1cc(C(C)(C)C)c(O)c(C(C)(C)C)c1", "note": "[BHT, butylated hydroxytoluene]", "values": [{"measurement": "effect on acetaminophen hepatotoxicity", "setting": "[2]", "value": "profoundly enhance its hepatotoxicity"}]}
{"compound": "C[S+](C)[O-]", "note": "[DMSO, Dimethyl sulfoxide]", "values": [{"measurement": "protection against hepatotoxic effects of acetaminophen", "setting": "[3]", "value": "protect mice against the hepatotoxic effects of acetaminophen"}, {"measurement": "protection against CCl4 hepatotoxicity", "setting": "[4]", "value": "inability of DMSO to protect mice against CCl4 hepatotoxicity"}]}
{"compound": "CC(=O)N[C@@H](CS)C(=O)O", "note": "[N-acetylcysteine]", "values": [{"measurement": "prevention of hepatotoxicity", "setting": "[5]", "value": "effective in preventing hepatotoxicity"}]}
{"compound": "CCN(C(C)=O)c1ccc(O)cc1", "note": "[N-ethyl-4'-hydroxyacetanilide]", "values": [{"measurement": "average time before licking a back paw", "setting": "[6]", "value": 64, "unit": "s"}, {"measurement": "increase in pain-response time", "setting": "[6]; vs untreated control, 54° C.", "value": "~50", "unit": "%"}, {"measurement": "duration of sedative effects", "setting": "[18]", "value": "about one-half"}, {"measurement": "sedative effects", "setting": "[18]", "value": "sedative effects"}, {"measurement": "time to ataxia of the hind legs", "setting": "[18]", "value": "about 15 minutes"}, {"measurement": "time to drowsiness", "setting": "[18]", "value": "about 25 minutes"}, {"measurement": "duration of sleep", "setting": "600 mg/kg oral, aqueous vehicle, pH 12", "value": "25 to 40", "unit": "min"}, {"measurement": "antipyretic activity", "setting": "[7]", "value": "no antipyretic activity"}, {"measurement": "analgesic properties", "setting": "[8]", "value": "no analgesic properties"}]}
{"compound": "CC(=O)N(c1ccc(O)cc1)C(C)C", "note": "[N-isopropylacetaminophen, N-isopropyl-4'-hydroxyacetanilide]", "values": [{"measurement": "average time before licking a back paw", "setting": "[6]", "value": 64, "unit": "s"}, {"measurement": "increase in response time", "setting": "[6]; vs untreated control, 54° C.", "value": 50, "unit": "%"}, {"measurement": "histopathology of liver, kidney and lung", "setting": "[9]", "value": "no organ showed any signs of injury"}, {"measurement": "duration of sedative effect", "setting": "[10]; 250 mg/kg", "value": 30, "unit": "min"}, {"measurement": "duration of sedative effect", "setting": "[10]; 400 mg/kg", "value": "approximately 1.5 hr"}, {"measurement": "CNS sedation", "setting": "[10]; 250-400 mg/kg i.p.", "value": "significant CNS sedation"}, {"measurement": "additional CNS effects after recovery from sedation", "setting": "[10]; after recovery", "value": "no additional CNS effects were observed"}, {"measurement": "sleep", "setting": "[10]; higher dose", "value": "went to sleep"}, {"measurement": "dose giving significant CNS sedation in all mice", "setting": "[10]; i.p.", "value": "250 to 400", "unit": "mg/kg"}, {"measurement": "dose needed to give the same sedative activity", "setting": "[10]; oral", "value": "400 to 600", "unit": "mg/kg"}]}
{"compound": "CC(=O)Nc1ccc(O)cc1", "note": "[acetaminophen]", "values": [{"measurement": "fraction of the liver necrotic (estimated)", "setting": "[11]", "value": "~60", "unit": "%"}, {"measurement": "liver histopathology", "setting": "[11]", "value": "severe hepatic necrosis"}, {"measurement": "immediate symptomatic effects", "setting": "mouse, in vivo", "value": "No immediate symptomatic effects"}, {"measurement": "oral LD50", "setting": "[12]; po", "value": "about 400 mg/kg"}, {"measurement": "hepatotoxicity at the oral LD50 dose", "setting": "[12]", "value": "severe hepatotoxicity"}, {"measurement": "hepatotoxicity on chronic ingestion", "setting": "[13]", "value": "massive hepatic necrosis"}]}
{"compound": "O=C1O[C@H]([C@@H](O)CO)C(O)=C1O", "note": "[ascorbic acid]", "values": [{"measurement": "protective effect against paracetamol", "setting": "[1]; nonsustained release form", "value": "no protective effect"}, {"measurement": "protective effect against paracetamol", "setting": "[1]; sustained release form", "value": "substantial protective effect"}, {"measurement": "protection against acetaminophen hepatotoxicity", "setting": "[1]; animal studies", "value": "may also provide such protection"}, {"measurement": "apparent half-life of acetaminophen", "setting": "[14]", "value": "did not affect the apparent half-life"}, {"measurement": "excretion rate of acetaminophen sulfate", "setting": "[14]", "value": "rapid and pronounced decrease"}]}
{"compound": "NCCS", "note": "[cysteamine]", "values": [{"measurement": "protection against acetaminophen hepatotoxicity", "setting": "[1]; man and experimental animals", "value": "varying degrees of protection"}]}
{"compound": "N[C@@H](CS)C(=O)O", "note": "[cysteine]", "values": [{"measurement": "protection against acetaminophen hepatotoxicity", "setting": "[1]; man and experimental animals", "value": "varying degrees of protection"}]}
{"compound": "CCO", "note": "[ethanol]", "values": [{"measurement": "induction of cytochrome P-450", "setting": "[15]", "value": "demonstrated to induce cytochrome P-450"}, {"measurement": "effect on acetaminophen-mediated hepatotoxicity", "setting": "[16]", "value": "markedly increased"}]}
{"compound": "N[C@@H](CCC(=O)N[C@@H](CS)C(=O)NCC(=O)O)C(=O)O", "note": "[glutathione]", "values": [{"measurement": "protection against acetaminophen toxicity", "setting": "[1]", "value": "afford protection against acetaminophen toxicity"}]}
{"compound": "CSCC[C@H](N)C(=O)O", "note": "[methionine]", "values": [{"measurement": "protection against acetaminophen hepatotoxicity", "setting": "[1]; man and experimental animals", "value": "varying degrees of protection"}]}
{"compound": "CCC1(c2ccccc2)C(=O)NC(=O)NC1=O", "note": "[phenobarbital]", "values": [{"measurement": "induction of cytochrome P-450", "setting": "[15]", "value": "well-known cytochrome P-450 inducer"}]}
{"compound": "CC(CN1c2ccccc2Sc2ccccc21)N(C)C", "note": "(centres unmarked) [promethazine]", "values": [{"measurement": "protection against acetaminophen toxicity", "setting": "[1]", "value": "afford protection against acetaminophen toxicity"}]}
{"compound": "CCCOC(=O)c1cc(O)c(O)c(O)c1", "note": "[propyl gallate]", "values": [{"measurement": "effect on acetaminophen hepatotoxicity", "setting": "[1]", "value": "reduce heptatotoxicity"}]}
{"compound": "Cc1c(C)c2c(c(C)c1O)CCC(C)(CCCC(C)CCCC(C)CCCC(C)C)O2", "note": "(stereo not drawn) [vitamin E, α-tocopherol]", "values": [{"measurement": "effect on acetaminophen hepatotoxicity", "setting": "[1]", "value": "reduce heptatotoxicity"}, {"measurement": "protection against acetaminophen hepatotoxicity", "setting": "[1]; man and experimental animals", "value": "varying degrees of protection"}, {"measurement": "protection against acetaminophen hepatotoxicity", "setting": "[17]", "value": "protects vitamin E deficient rats"}]}
{"compound": "CN(C)CCO", "note": "[β-dimethylaminoethanol]", "values": [{"measurement": "protection against acetaminophen toxicity", "setting": "[1]", "value": "afford protection against acetaminophen toxicity"}]}
{"compound": "selenium", "values": [{"measurement": "protection against acetaminophen hepatotoxicity", "setting": "[1]; man and experimental animals", "value": "varying degrees of protection"}]}
